Experimental data reported in patent US11173144B2, “Adrenergic receptor modulating compounds and methods of using the same” (The Board of Trustees of the Leland Stanford Junior …, priority 2016, dated 2021).
Read-outs that look alike come from different tables or passages of the source.

Assays:
ADRB1 [1] = molecular target: T1, ADRB1 (Homo sapiens (Human), UniProt P08588); test: cAMP assay (homogenous time-resolved fluorescence) in HEK-293 cells stably expressing human recombinant ADRB1; format: cell-based; details: for Emax: HEK293, 0.5 h, percent efficacy compared to the maximum response achieved with isoproterenol, read-out: cAMP pathway % Iso max
T1 sequence (P08588 whole entry): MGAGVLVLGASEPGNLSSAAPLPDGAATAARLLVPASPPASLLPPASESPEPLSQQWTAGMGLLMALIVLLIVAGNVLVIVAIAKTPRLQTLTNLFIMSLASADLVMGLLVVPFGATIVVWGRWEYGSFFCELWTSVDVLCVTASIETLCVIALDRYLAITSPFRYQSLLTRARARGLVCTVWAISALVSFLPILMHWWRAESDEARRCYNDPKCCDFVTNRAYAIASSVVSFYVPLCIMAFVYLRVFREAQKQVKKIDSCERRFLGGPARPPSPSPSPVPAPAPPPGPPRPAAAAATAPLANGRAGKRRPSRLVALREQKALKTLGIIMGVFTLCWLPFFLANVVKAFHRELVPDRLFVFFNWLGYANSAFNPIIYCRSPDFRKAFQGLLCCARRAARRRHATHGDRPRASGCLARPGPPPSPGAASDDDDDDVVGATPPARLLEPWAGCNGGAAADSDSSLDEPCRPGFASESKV
Protocol: Pharmacological effects of compounds at the cAMP pathway mediated by ADRB1 are evaluated by measuring cAMP production using the homogenous time-resolved fluorescence detection method with HEK-293 cells stably expressing human recombinant ADRB1. Briefly, cells are suspended in HBSS buffer completed with 20 mM HEPES (pH 7.4) and 500 μM IBMX (3-isobutyl-1-methylxanthine) and distributed at a density of 3×10^3 cells/well. […] The results are expressed as a percent of the maximum efficacy achieved with isoproterenol. Pharmacological effects of compounds at the cAMP pathway mediated by ADRB2 and ADRB3 are measured as described above using CHO cells stably expressing human recombinant ADRB2 and human SK-N-MC neurotumor cells endogenously expressing ADRB3, respectively.
After 30 minute incubation with compounds, the cells are lysed and the fluorescence donor (Europium-chelated-labeled cAMP tracer; Eu-cAMP tracer) and fluorescence acceptor (cAMP-specific monoclonal antibodies labeled with the ULight™ dye) are added. […] The results are expressed as a percent of the control response to 10 μM isoproterenol. For subtype selectivity determination, same procedure is performed using Chinese hamster ovary (CHO) cells stably expressing human β2-adrenergic receptors or SK-N-MC human neuroblastoma cell line expressing β3-adrenergic receptors.
ADRB1 EC50 from functional assay (nM)^a, Determined using the homogenous time-resolved fluorescence detection method with HEK-293 cells stably expressing human recombinant ADRB1. ADRB2 IC50 from binding assay(nM)^b, Determined using the Tag-lite Adrenoceptor Beta2 receptor ligand binding assay.

ADRB2 = ADRB2 (Homo sapiens (Human), UniProt P07550); test: Tag-lite Adrenoceptor Beta2 receptor ligand binding assay; details: Table 7; read-out: ADRB2 IC50 from binding assay
ADRB2, sequence (P07550 whole entry): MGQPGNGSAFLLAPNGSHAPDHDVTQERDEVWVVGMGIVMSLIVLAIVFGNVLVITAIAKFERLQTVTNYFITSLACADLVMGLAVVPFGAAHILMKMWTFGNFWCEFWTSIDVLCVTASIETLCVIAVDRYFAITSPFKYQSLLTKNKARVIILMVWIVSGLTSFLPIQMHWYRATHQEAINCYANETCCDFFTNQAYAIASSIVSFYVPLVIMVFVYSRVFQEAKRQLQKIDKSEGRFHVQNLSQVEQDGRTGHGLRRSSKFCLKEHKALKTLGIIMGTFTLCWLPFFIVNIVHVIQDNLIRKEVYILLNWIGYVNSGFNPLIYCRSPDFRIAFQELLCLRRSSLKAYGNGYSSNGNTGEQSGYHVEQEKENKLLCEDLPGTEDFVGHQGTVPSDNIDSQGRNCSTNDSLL
Protocol: The subtype selective activity of some compounds of interest was assessed for adrenergic receptor beta 1 (ADRB1) versus adrenergic receptor beta 2 (ADRB2). ADRB1 EC50 from functional assay (nM)^a, Determined using the homogenous time-resolved fluorescence detection method with HEK-293 cells stably expressing human recombinant ADRB1. ADRB2 IC50 from binding assay(nM)^b, Determined using the Tag-lite Adrenoceptor Beta2 receptor ligand binding assay.

[2] = tested on: LPS-induced TNF-α production in primary microglia; test: In vitro primary microglia TNF-α assay (LPS stimulation, ELISA); format: cell-based, rat; details: 4 h
Excerpt: Mixed glial cells are obtained from the cerebral cortex of Sprague Dawley rat pups at postnatal days 1-3. Briefly, neonates are euthanized by decapitation and their brain tissues are collected for isolation of cortex. The isolated cortex was then trypsinized, triturated, and placed onto tissue culture flasks in DMEM supplemented with 10% fetal bovine serum and 1% Penicillin/Streptomycin. After 10 days in vitro, microglia are harvested by gentle shaking of the growth flask, plated in a 96 well plate at a density of 30,000 cells/well, and incubated at 37° C. overnight. […] Following the 4 h incubation, cell media is collected and the concentration of TNF-α is measured by ELISA (Invitrogen, KRC3011) according to the manufacturer's instruction.
The effects of selected compounds on cellular inflammatory response to LPS are determined in primary microglia extracted from a rat. Briefly, mixed glial cells are obtained from the cerebral cortex of Sprague Dawley rat pups at postnatal days 1-3 and cultured in DMEM supplemented with 10% fetal bovine serum. After 7 days in vitro, microglia are harvested by gentle shaking of the growth flask and plated in a 96 well plate at the density of 3×10^4 cells/well. The cells are used following day. Effects of compounds on LPS-induced TNFα production are determined by incubating cells with LPS along with or without test compounds for 4 hours. Following the 4 hour incubation, cell media are collected and concentration of TNFα was measured by EUSA.

C57BI/6J female mice = test: 24 day administration, lung and heart weight and fibrosis; format: in vivo; details: 10 mg/kg for 24 days
Protocol: C57BI/6J female mice were administered with isoproterenol, KSN01-01-15, or KSN01-01-18 at 10 mg/kg for 24 days. After 24 days of treatment, mice were sacrificed, and lung and heart weight were measured. Hearts were then fixed in 10% formalin, and stained with Masson trichrome for evaluation of fibrosis.

ADRB1 [3] = molecular target: T1, ADRB1; test: β-arrestin assay (PathHunter enzyme fragment complementation, CHO-K1-ADRB1 cells); format: cell-based; details: for concentration-dependent response at the β-arrestin pathway: up to 30 μM; for β-arrestin pathway % Iso max: percent efficacy compared to the maximum response achieved with isoproterenol
Protocol: Pharmacological activity of compounds in the β-arrestin pathway mediated by ADRB1 are evaluated using an enzyme fragment complementation method with a β-galactosidase functional reporter. An engineered CHO-K1-ADRB1 PathHunter cell line (DiscoveRx) is used in the assay. In this cell line, enzyme acceptor (β-galactosidase fragment) is fused to β-arrestin and enzyme donor (β-galactosidase fragment) is fused to the ADRB1. Thus, activation of the ADRB1 stimulates binding of β-arrestin to the ProLink-tagged ADRB1 and forces complementation of the two enzyme fragments, resulting in the formation of an active β-galactosidase enzyme. Briefly, CHO-K1-ADRB1 PathHunter cell lines are plated in a total volume of 20 μL cell plating reagent (DiscoveRx, 93-0563R0A) at a density of 2,500 cells/well into 384 well microplates and incubated overnight at 37° C. in 5% CO2. […] Chemiluminescent signal is then read with a PerkinElmer Envision™ instrument. The results are expressed as a percent of the maximum efficacy achieved with isoproterenol.
Effects of compounds on β-arrestin signaling pathways are determined using CHO cells stably expressing human β1-adrenergic receptors or human β2-adrenergic receptors with PathHunter® β-Arrestin GPCR assay system (DiscoveRx). In this system, adrenergic receptor is fused in frame with the small enzyme fragment ProLink™ and co-expressed in cell stably expressing at fusion protein of β-arrestin and the larger, N-terminal deletion mutant of β-galactosidase enzyme. Activation of the adrenergic receptor stimulates binding of β-arrestin to the ProLink-tagged receptor and forces complementation of the two enzyme fragments, resulting in the formation of an active β-gal enzyme. This interaction leads to an increase in enzyme activity that can be measured using chemiluminescent detection reagents. The effects of compounds on β-arrestin signaling pathways are determined 90 minutes after incubating the cells with the test compounds.

[4] = tested on: LPS-induced TNF-α response; test: In vivo LPS assay; parameters: species or system C57BI/6J mice; details: mice, 3 mg/kg 15 min prior to LPS, 90 min post-LPS
Protocol: Amplification is performed using StepOnePlus (Applied Biosystems).
Following injections, mice are single-housed. At 90 min post-LPS/saline, mice are deeply anesthetized with isoflurane and blood is collected from the right ventricle via cardiac puncture (23 g needle) into lithium heparin-containing vials (BD microtainer plasma tubes). Plasma is separated by centrifugation (11,000 rpm for 3 minutes) within 30 min of collection and stored at −80° C. until analysis. The concentration of TNF-α in the collected plasma is measured by ELISA (Invitrogen, KMC3012) according to the manufacturer's instruction.

[5] = molecular target: panel of CNS relevant targets, including G-protein coupled receptor and transporters; test: Screen against a panel of CNS relevant targets (off-target affinity); format: binding; details: broad range of neurotransmitter transporters, ion channels and other CNS proteins
Excerpt: From a drug development perspective, characterizing the off-target effects of lead compounds is an important issue, as interactions with off-target molecules may lead to undesirable side effects. Thus we screened xamoterol (S) and the key compound compound 43 against a panel of CNS relevant targets, including G-protein coupled receptor and transporters. […].

[6] = Table 3, read-out: cAMP pathway ADRB1 EC50
[7] = Table 7, read-out: ADRB1 EC50 from functional assay
[8] = Table 4, read-out: cAMP pathway ADRB1 EC50
[9] = Table 4, read-out: β-arrestin pathway ADRB1 EC50

## O=C(NCCNC[C@H](O)COc1cc(F)c(O)cc1F)N1CCOCC1 [Compound 28]
ADRB1 [1]; Table 3
  Emax: 21.5 ± 0.5%
ADRB1 [1]; [6]
  EC50: 1 to 10 nM

## Cc1n[nH]c2cccc(OC[C@@H](O)CNCCc3ccccc3C(F)(F)F)c12 [Compound 69]
ADRB2
  IC50: 0.048 nM
ADRB1 [1]; [7]
  EC50: 1 nM

## CC(C)NCC(O)c1ccc(O)c(O)c1 (centres unmarked) [isoproterenol, reference compound]
[2]; Rattus norvegicus, Microglia, read-out: inhibition of LPS-induced TNF-α production
  inhibition at 10 µM: 85%
C57BI/6J female mice
  fibrotic changes in heart and heart weight: induces fibrotic changes in heart and increases heart weight
  fibrotic changes in lung and lung weight: induces fibrotic changes in lung and increases lung weight
  morphological changes in heart: produces morphological changes in heart

## N#Cc1cc(OC[C@@H](O)CNCCNC(=O)N2CCOCC2)ccc1O [Compound 29]
ADRB1 [1]; [6]
  EC50: 1 to 10 nM

## Cc1n[nH]c2cccc(OC[C@@H](O)CNC(C)(C)COc3ccccn3)c12 [Compound 86]
ADRB2
  IC50: 0.144 nM
ADRB1 [1]; [7]
  EC50: 44.7 nM

## O=C(NCCNC[C@H](O)COc1ccc(O)cc1)N1CC(O)C1 [Compound 47]
ADRB1 [3]
  concentration-dependent response at the β-arrestin pathway: did not produce concentration-dependent response up to 30 μM
ADRB1 [1]; Table 4
  Emax: 42 ± 2.4%
ADRB1 [1]; [8]
  EC50: 100 to 1000 nM

## Cc1n[nH]c2cccc(OC[C@@H](O)CNCCOc3ccccn3)c12 [Compound 87]
ADRB2
  IC50: 0.23 nM
ADRB1 [1]; [7]
  EC50: 5 nM

## Cc1n[nH]c2cccc(OC[C@@H](O)CNC(C)(C)C)c12 [Compound 75]
ADRB2
  IC50: 0.065 nM
ADRB1 [1]; [7]
  EC50: 3.5 nM
C57BI/6J female mice
  fibrotic changes in heart and heart weight: did not induce these changes
  fibrotic changes in lung and lung weight: did not induce these changes
  morphological changes in heart: did not induce these changes

## O=C(CCCNC[C@H](O)COc1ccc(O)cc1)N1CCOCC1 [Compound 45]
ADRB1 [3]; Table 4
  β-arrestin pathway % Iso max: 18.6%
ADRB1 [3]; [9]
  EC50: 100 to 1000 nM
ADRB1 [1]; Table 4
  Emax: 71.9 ± 1.3%
ADRB1 [1]; [8]
  EC50: 10 to 100 nM

## COc1ccccc1CC(C)NC[C@H](O)COc1cccc2[nH]nc(C)c12 (some centres unmarked) [Compound 72]
ADRB2
  IC50: 0.009 nM
ADRB1 [1]
  EC50: 0.8 nM

## COCC(C)(C)NC[C@H](O)COc1cccc2[nH]nc(C)c12 [Compound 90]
ADRB2
  IC50: 0.019 nM
ADRB1 [1]; [7]
  EC50: 3.4 nM

## COc1ccc(CCNCC(O)COc2ccc(O)c(O)c2)cc1OC (centres unmarked) [Compound 50]
ADRB1 [3]
  efficacy at the β-arrestin pathway compared to the full agonist isoproterenol: 36.5%
ADRB1 [3]; Table 4
  β-arrestin pathway % Iso max: 36.5%
ADRB1 [3]; [9]
  EC50: 10 to 100 nM
ADRB1 [3]; read-out: EC50 at the β-arrestin pathway via ADRB1
  EC50: 32.2 nM
ADRB1 [1]
  agonistic activity on the ADRB1-mediated cAMP pathway: full agonistic activity
ADRB1 [1]; [8]
  EC50: 1 to 10 nM

## O=C(CCNC[C@H](O)COc1ccc(O)cc1)N1CCOCC1 [Compound 46]
ADRB1 [3]; Table 4
  β-arrestin pathway % Iso max: 13.7%
ADRB1 [3]; [9]
  EC50: 10 to 100 nM
ADRB1 [1]; Table 4
  Emax: 73.9 ± 10.2%
ADRB1 [1]; [8]
  EC50: 100 to 1000 nM

## COc1ccccc1OCCNC[C@H](O)COc1cccc2[nH]nc(C)c12 [Compound 52]
ADRB2
  IC50: 0.024 nM
ADRB1 [1]; [7]
  EC50: 9.2 nM

## O=C(NCCNC[C@H](O)COc1ccc(O)cc1)N1CC(CO)C1 [Compound 48]
ADRB1 [3]
  concentration-dependent response at the β-arrestin pathway: did not produce concentration-dependent response up to 30 μM
ADRB1 [1]; Table 4
  Emax: 40.1 ± 3.9%

## COc1ccc(OCCNC[C@H](O)COc2cccc3[nH]nc(C)c23)cc1OC [Compound 55]
ADRB2
  IC50: 0.38 nM
ADRB1 [1]; [7]
  EC50: 35.4 nM

## COc1ccc(CCOCCNC[C@H](O)COc2ccc(O)cc2)cc1OC [Compound 44]
ADRB1 [3]; Table 4
  β-arrestin pathway % Iso max: 14%
ADRB1 [3]; [9]
  EC50: 100 to 1000 nM
ADRB1 [1]; Table 4
  Emax: 60.2 ± 9.9%
ADRB1 [1]; [8]
  EC50: 100 to 1000 nM

## O=C(NCCNC[C@H](O)COc1ccc(O)cc1)N1CCOCC1 [(S)-Xamoterol, reference compound]
[4]
  LPS-induced TNF-α response in periphery (plasma): markedly inhibited
  LPS-induced inflammatory response in the brain (TNF-α, IL-1β, IL-6 gene expression): attenuated
[5]
  Ki: > 10000 nM
[2]; rat primary microglia, LPS 10 ng/ml, compound 10 μM
  inhibition of LPS-induced TNF-α production: approximately 60%
